Source: US20260265233A1, “BENZOTHIOPHENE DERIVATIVES AS RXFP1 AGONISTS” (BRISTOL-MYERS SQUIBB COMPANY, priority 2021, published 2026)

Each compound was assayed against T1, human RXFP1 (Homo sapiens, UniProt Q9HBX9) (assay: hRXFP1 HEK293 cAMP assay (HTRF)). Settings: HEK293 cells stably expressing human RXFP1; 30 min at rt; intracellular cAMP by HTRF.
T1 construct: expressed in transfected cells
T1 sequence (Q9HBX9 1-757): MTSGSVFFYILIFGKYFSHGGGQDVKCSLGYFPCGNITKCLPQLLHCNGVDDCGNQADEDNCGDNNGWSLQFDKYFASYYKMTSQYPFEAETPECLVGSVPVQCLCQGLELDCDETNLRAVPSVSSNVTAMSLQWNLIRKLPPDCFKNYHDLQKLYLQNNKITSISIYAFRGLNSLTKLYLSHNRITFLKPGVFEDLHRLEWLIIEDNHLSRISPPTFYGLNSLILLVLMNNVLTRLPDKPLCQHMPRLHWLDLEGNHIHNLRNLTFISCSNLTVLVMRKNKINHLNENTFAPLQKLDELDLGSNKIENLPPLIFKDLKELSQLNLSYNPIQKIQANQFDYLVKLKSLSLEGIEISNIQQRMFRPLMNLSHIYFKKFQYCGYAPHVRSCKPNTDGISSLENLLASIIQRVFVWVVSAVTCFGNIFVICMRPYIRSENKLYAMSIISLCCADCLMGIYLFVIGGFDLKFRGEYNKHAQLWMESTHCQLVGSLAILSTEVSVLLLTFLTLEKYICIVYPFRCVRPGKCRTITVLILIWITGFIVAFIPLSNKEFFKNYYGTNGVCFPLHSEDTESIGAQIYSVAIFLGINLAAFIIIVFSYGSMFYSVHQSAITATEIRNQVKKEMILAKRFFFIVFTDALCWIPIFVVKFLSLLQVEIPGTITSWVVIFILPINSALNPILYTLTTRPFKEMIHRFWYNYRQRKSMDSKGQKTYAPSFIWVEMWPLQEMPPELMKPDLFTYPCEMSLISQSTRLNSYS
Assay type: cell-based
Method: RXFP1 Cyclic Adenosine Monophosphate (cAMP) Assays. Human embryonic kidney cells 293 (HEK293) cells and HEK293 cells stably expressing human RXFP1, were cultured in MEM medium supplemented with 10% qualified FBS, and 300 μg/ml hygromycin (Life Technologies). Cells were dissociated and suspended in assay buffer. The assay buffer was HBSS buffer (with calcium and magnesium) containing 20 mM HEPES, 0.05% BSA, and 0.5 mM IBMX. Cells (3000 cells per well, except 1500 cell per well for HEK293 cells stably expressing human RXFP1) were added to 384-well Proxiplates (Perkin-Elmer). Cells were immediately treated with test compounds in DMSO (2% final) at final concentrations in the range of 0.010 nM to 50 μM. Cells were incubated for 30 min at rt. The level of intracellular cAMP was determined using the HTRF HiRange cAMP assay reagent kit (Cisbio) according to manufacturer's instructions. Solutions of cryptate conjugated anti-cAMP and d2 fluorophore-labelled cAMP were made in a supplied lysis buffer separately. Upon completion of the reaction, the cells were lysed with equal volume of the d2-cAMP solution and anti-cAMP solution. After a 1 h rt incubation, time-resolved fluorescence intensity was measured using the Envision (Perkin-Elmer) at 400 nm excitation and dual emission at 590 nm and 665 nm. A calibration curve was constructed with an external cAMP standard at concentrations ranging from 2.7 μM to 0.1 pM by plotting the fluorescent intensity ratio from 665 nm emission to the intensity from the 590 nm emission against cAMP concentrations. The potency and activity of a compound to […] cAMP production was then determined by fitting to a 4-parametric logistic equation from a plot of cAMP level versus compound concentrations.
The examples disclosed below were tested in the human RXFP1 (hRXFP1) HEK293 cAMP assay described above and found to have agonist activity.

Compound | EC50
COc1ccc(C2CCCN(C(=O)OC(C)(C)C)C2)cc1C(=O)Nc1c(C(=O)Nc2ccc(F)c(C(F)(F)F)c2)sc2cc(C(F)(F)F)ccc12 (stereo not shown) [Example 79, tert-butyl 3-(3-((2-((4-fluoro-3-(trifluoromethyl)phenyl)carbamoyl)-6-(trifluoromethyl)benzo[b]thiophen-3-yl)carbamoyl)-4-methoxyphenyl) piperidine-1-carboxylate] | 390 nM
2-(3′-((2-((4-fluoro-3-(trifluoromethyl) phenyl) carbamoyl)-6-(trifluoromethyl) benzo[b]thiophen-3-yl) carbamoyl)-4′-methoxy-[1, 1′-biphenyl]-3-yl)-2-(tetrahydro-2H-pyran-4-carboxamido) acetic acid [Example 26] | 153 nM
COc1ccc(C2CCCN(CCCO)C2)cc1C(=O)Nc1c(C(=O)Nc2ccc(F)c(C(F)(F)F)c2)sc2cc(C(F)(F)F)ccc12 (stereo not shown) [Example 90, N-(4-fluoro-3-(trifluoromethyl)phenyl)-3-(5-(1-(3-hydroxypropyl)piperidin-3-yl)-2-methoxy-benzamido)-6-(trifluoromethyl) benzo[b] thiophene-2-carboxamide] | 1580 nM
COc1ccc(C23CCC(C(C)(C)O)(CC2)CC3)cc1C(=O)Nc1c(C(=O)Nc2ccc(F)c(C(F)(F)F)c2)sc2cc(C(F)(F)F)ccc12 [Example 40, N-(4-fluoro-3-(trifluoromethyl)phenyl)-3-(5-(4-(2-hydroxypropan-2-yl)bicyclo [2.2.2]octan-1-yl)-2-methoxybenzamido)-6-(trifluoromethyl) benzo[b]thiophene-2-carboxamide] | 220 nM
COc1ccc(C2CCN(S(C)(=O)=O)C2)cc1C(=O)Nc1c(C(=O)Nc2ccc(F)c(C(F)(F)F)c2)sc2cc(C(F)(F)F)ccc12 (stereo not shown) [Example 148, N-(4-fluoro-3-(trifluoromethyl)phenyl)-3-(2-methoxy-5-(1-(methylsulfonyl)pyrrolidin-3-yl)benzamido)-6-(trifluoromethyl) benzo[b] thiophene-2-carboxamide] | 2240 nM
COc1ccc(C(=O)NCC2(S(C)(=O)=O)CC2)cc1C(=O)Nc1c(C(=O)Nc2ccc(F)c(C(F)(F)F)c2)sc2cc(C(F)(F)F)ccc12 [Example 131, N3-(2-((4-fluoro-3-(trifluoromethyl)phenyl)carbamoyl)-6-(trifluoromethyl)benzo[b]thiophen-3-yl)-4-methoxy-N1-((1-(methylsulfonyl)cyclopropyl)methyl) isophthalamide] | 51.2 nM
COc1ccc(C(=O)N(C)C)cc1C(=O)Nc1c(C(=O)Nc2ccc(F)c(C(F)(F)F)c2)sc2cc(C(F)(F)F)ccc12 [Example 220, N3-(2-((4-fluoro-3-(trifluoromethyl)phenyl)carbamoyl)-6-(trifluoromethyl)benzo[b]thiophen-3-yl)-4-methoxy-N1,N1-dimethyl-isophthalamide] | 2530 nM
COc1ccc(-n2cc(C(C)(C)O)cn2)cc1C(=O)Nc1c(C(=O)Nc2ccc(F)c(C(F)(F)F)c2)sc2cc(C(F)(F)F)ccc12 [Example 3, N-(4-fluoro-3-(trifluoromethyl)phenyl)-3-(5-(4-(2-hydroxypropan-2-yl)-1H-pyrazol-1-yl)-2-methoxybenzamido)-6-(trifluoromethyl) benzo[b]thiophene-2-carboxamide] | 350 nM
COc1ccc(C(=O)NCC(C)(C)S(C)(=O)=O)cc1C(=O)Nc1c(C(=O)Nc2ccc(F)c(C(F)(F)F)c2)sc2cc(C(F)(F)F)ccc12 [Example 203, N3-(2-{[4-fluoro-3-(trifluoromethyl)phenyl]carbamoyl}-6-(trifluoromethyl)-1-benzothiophen-3-yl)-N1-(2-methanesulfonyl-2-methylpropyl)-4-methoxybenzene-1,3-dicarboxamide] | 36.1 nM
COc1ccc(C2=NOC3CC(NC(=O)CO)CC23)cc1C(=O)Nc1c(C(=O)Nc2ccc(F)c(C(F)(F)F)c2)sc2cc(C(F)(F)F)ccc12 (single isomer, unassigned) [Example 264, N-[4-fluoro-3-(trifluoromethyl)phenyl]-3-{5-[5-(2-hydroxyacetamido)-3aH,4H,5H,6H, 6aH-cyclopenta[d] [1,2]oxazol-3-yl]-2-methoxy-benzamido}-6-(trifluoromethyl)-1-benzothiophene-2-carboxamide] | 3140 nM
COc1ccc(C2CCCC(C)(O)C2)cc1C(=O)Nc1c(C(=O)Nc2ccc(F)c(C(F)(F)F)c2)sc2cc(C(F)(F)F)ccc12 (single isomer, unassigned) [Example 35, N-(4-fluoro-3-(trifluoromethyl)phenyl)-3-(5-(3-hydroxy-3-methylcyclohexyl)-2-methoxybenzamido)-6-(trifluoromethyl)benzo[b]thiophene-2-carboxamide] | 794 nM

More lines, in order of falling EC50, values ahead:

EC50 | Compound
3280 nM | COc1ccc(S(=O)(=O)N2CCC[C@@H](NCC(N)=O)C2)cc1C(=O)Nc1c(C(=O)Nc2ccc(F)c(C(F)(F)F)c2)sc2cc(C(F)(F)F)ccc12 [Example 31]
1860 nM | COc1ccc(C2=NOC3(C2)CN(C(=O)CO)C3)cc1C(=O)Nc1c(C(=O)Nc2ccc(F)c(C(F)(F)F)c2)sc2cc(C(F)(F)F)ccc12 [Example 285, N-(4-fluoro-3-(trifluoromethyl)phenyl)-3-(5-(2-(2-hydroxyacetyl)-5-oxa-2,6-diazaspiro[3.4]oct-6-en-7-yl)-2-methoxy-benzamido)-6-(trifluoromethyl) benzo[b] thiophene-2-carboxamide]
724 nM | COc1ccc(C2=NOC3CNCC23)cc1C(=O)Nc1c(C(=O)Nc2ccc(F)c(C(F)(F)F)c2)sc2cc(C(F)(F)F)ccc12 (stereo not shown) [Example 246, N-(4-fluoro-3-(trifluoromethyl)phenyl)-3-(2-methoxy-5-(3a,5,6,6a-tetrahydro-4H-pyrrolo[3,4-d]isoxazol-3-yl)benzamido)-6-(trifluoromethyl) benzo[b] thiophene-2-carboxamide]
612 nM | COc1ccc(C2=NCC3(CCCCC3)O2)cc1C(=O)Nc1c(C(=O)Nc2ccc(F)c(C(F)(F)F)c2)sc2cc(C(F)(F)F)ccc12 [Example 58, N-(4-fluoro-3-(trifluoromethyl)phenyl)-3-(2-methoxy-5-(1-oxa-3-azaspiro[4.5]dec-2-en-2-yl)benzamido)-6-(trifluoromethyl)benzo[b]thiophene-2-carboxamide]
400 nM | COc1ccc(C2CCN(C(=O)CO)C2)cc1C(=O)Nc1c(C(=O)Nc2ccc(F)c(C(F)(F)F)c2)sc2cc(C(F)(F)F)ccc12 (stereo not shown) [Example 141, N-(4-fluoro-3-(trifluoromethyl)phenyl)-3-(5-(1-(2-hydroxyacetyl)pyrrolidin-3-yl)-2-methoxy-benzamido)-6-(trifluoromethyl) benzo[b] thiophene-2-carboxamide]
228 nM | COc1ccc(-c2cccc(C(C)(C)O)c2)cc1C(=O)Nc1c(C(=O)Nc2ccc(F)c(C(F)(F)F)c2)sc2cc(C(F)(F)F)ccc12 [Example 120, N-(4-fluoro-3-(trifluoromethyl)phenyl)-3-(3′-(2-hydroxypropan-2-yl)-4-methoxy-[1,1′-biphenyl]-3-carboxamido)-6-(trifluoromethyl) benzo[b] thiophene-2-carboxamide]
194 nM | COc1ccc(C2CCC(C)(O)CC2)cc1C(=O)Nc1c(C(=O)Nc2ccc(F)c(C(F)(F)F)c2)sc2cc(C(F)(F)F)ccc12 (single isomer, unassigned) [Example 38, N-(4-fluoro-3-(trifluoromethyl)phenyl)-3-(5-(4-hydroxy-4-methylcyclohexyl)-2-methoxybenzamido)-6-(trifluoromethyl)benzo[b]thiophene-2-carboxamide]
135 nM | COc1ccc(-c2cccc(C(=O)O)c2F)cc1C(=O)Nc1c(C(=O)Nc2ccc(F)c(C(F)(F)F)c2)sc2cc(C(F)(F)F)ccc12 [Example 14, 2-fluoro-3′-((2-((4-fluoro-3-(trifluoromethyl)phenyl)carbamoyl)-6-(trifluoromethyl)benzo[b]thiophen-3-yl)carbamoyl)-4′-methoxy-[1,1′-biphenyl]-3-carboxylic acid]
